Laboratory results: patent US6746835B2, “Thermally processed image recording material” (Fuji Photo Film Co., Ltd., priority 2001, dated 2004)

Test: pKa of the conjugate acid of the enolate anion (acid/base titration or UV absorption method)
Format: physicochemical
Conditions: mixed solvent of THF/water=3/2
Excerpt: The conjugate acid of the enolate anion in the formula (1) has a pKa value of 3.0-6.0. If the pKa value is less than 3.0, ultrahigh contrast images cannot be obtained. On the other hand, if it exceeds 6.0, stability before light exposure and development is degraded. The pKa value defined herein is a value obtained by the acid/base titration method or the UV absorption method in a mixed solvent of THF/water=3/2.
`O=C1/C(=C/O)N=C(c2cc(C(F)(F)F)cc(C(F)(F)F)c2)N1c1ccc(Cl)cc1` [Compound A-6] gave a pKa of 3.8. In the case of `CCCCCCCCCCCCNc1ccc(N2C(=O)/C(=C\O)N=C2C(F)(F)F)cc1` [Compound A-18], the pKa is reported as 3.1. `CCCCCCCCCCCCc1cc(CCCCCCCCCCCC)cc(N2N=C/C(=C/O)C2=O)c1` [Compound R-1] gave a pKa of at most 2.9. `CCCCCCCCCCCCCCCc1cccc(CCCN2C(=O)/C(=C\O)c3ccccc32)c1` [Compound R-2] gave a pKa of 6.3.
